Measurements published in US11091522B2, “Peptidomimetic macrocycles and uses thereof” (priority 2018, dated 2021).
Read-outs that look alike come from different tables or passages of the source. Bridge positions count the residues as written; N and C are the ends. Square brackets hold non-standard residues; d marks the D form. Peptide text beside a SMILES is read from it. R8 = C=CCCCCCC[C@@](C)(N)C(=O)O; S5 = C=CCCC[C@](C)(N)C(=O)O; Nle = CCCC[C@H](N)C(=O)O; Aib = CC(C)(N)C(=O)O

Legend:
[1] = Circular dichroism (CD) analysis of alpha-helicity; type: physicochemical; settings: difference 50% TFE minus benign
Protocol: Peptide solutions were analyzed by CD spectroscopy using a spectropolarimeter. A temperature controller was used to maintain temperature control of the optical cell. Results are expressed as mean molar ellipticity [θ] (deg cm^2 dmol^−1) as calculated from the equation [θ]=θobs·MRW/10*l*c where θobs is the observed ellipticity in millidegrees, MRW is the mean residue weight of the peptide (peptide molecular weight/number of residues), 1 is the optical path length of the cell in centimeters, and c is the peptide concentration in mg/ml. Peptide concentrations were determined by amino acid analysis. Stock solutions of peptides were prepared in benign CD buffer (20 mM phosphoric acid, pH 2). The stock solutions were used to prepare peptide solutions of 0.05 mg/ml in either benign CD buffer or CD buffer with 50% trifluoroethanol (TFE) for analyses in a 10 mm path length cell. Variable wavelength measurements of peptide solutions were scanned at 4° C. from 195 to 250 nm, in 0.2 nm increments, and a scan rate 50 nm per minute. The average of six scans is reported.

MDM2 = MDM2 (Homo sapiens, UniProt Q00987); assay: Competitive fluorescence polarization assay for MDM2; type: binding
Protocol: 1 mM of FAM-labeled linear peptide (in 100% DMSO) was diluted to 100 μM with DMSO (dilution 1:10). Then, diluted solution was further diluted from 100 μM to 10 μM with water (dilution 1:10), and diluted again with FP buffer from 10 μM to 40 nM (dilution 1:250). […] The diluted FAM-labeled peptides were kept in the dark until use.
Unlabeled peptide dose plates were prepared with FP buffer starting with 1 μM (final) of the peptide. […] 10 mM of the solution (in 100% DMSO) with DMSO to 5 mM (dilution 1:2); dilution from 5 mM to 500 μM with H2O (dilution 1:10); and dilution with FP buffer from 500 μM to 20 μM (dilution 1:25). […] 10 μl of 10 nM (4×) of FAM-labeled peptide was added into each well, and the wells were incubated for 3 h before being read.

MDMX = target: T1, MDMX (Homo sapiens, UniProt O15151); assay: Competitive fluorescence polarization assay for MDMX; type: binding
T1 sequence (O15151 1-125): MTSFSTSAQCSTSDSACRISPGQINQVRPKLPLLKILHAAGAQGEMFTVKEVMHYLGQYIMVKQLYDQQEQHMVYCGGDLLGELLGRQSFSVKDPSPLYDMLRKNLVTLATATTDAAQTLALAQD
Protocol: MDMX (40 kD) was diluted into FP buffer (high-salt buffer 200 mM NaCl, 5 mM CHAPS, pH 7.5) to make a 300 nM (2×) working stock solution. 20 μl of the 300 nM (2×) of protein stock solution was added into each well of 96-well black microplate. 1 mM (in 100% DMSO) of a FAM-labeled linear peptide was diluted with DMSO to a concentration of 100 μM (dilution 1:10). The solution was diluted from 100 M to 10 M with water (dilution 1:10), and diluted further with FP buffer from 10 μM to 40 nM (dilution 1:250). […] The diluted FAM-labeled peptide was kept in the dark until use. An unlabeled peptide dose plate was prepared with FP buffer starting with a concentration of 5 μM (final) of a peptide. […] 10 mM (in 100% DMSO) of the solution was diluted with DMSO to prepare a 5 mM (dilution 1:2) solution. The solution was diluted from 5 mM to 500 μM with H2O (dilution 1:10), and diluted further with FP buffer from 500 μM to 20 μM (dilution 1:25). […] 10 μl of the serially diluted unlabeled peptides were added to each well, which was filled with 20 μl of the 300 nM protein solution. 10 μl of the 10 nM (4×) FAM-labeled peptide solution was added into each well, and the wells were incubated for 3 h before reading.

[2] = competitive fluorescence polarization, MDM2, read-out: Ki (MDM2)
[3] = competitive fluorescence polarization, MDMX, read-out: Ki (MDMX)

Sequence of MDM2 (Q00987 1-125): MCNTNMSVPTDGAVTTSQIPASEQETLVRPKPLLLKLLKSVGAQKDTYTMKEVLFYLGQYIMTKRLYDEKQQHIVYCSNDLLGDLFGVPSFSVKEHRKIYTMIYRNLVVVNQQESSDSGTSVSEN

Row | Structure (SMILES) | Molar Ellipticity TFE-Molar Ellipticity Benign [1] [deg cm^2 dmol^−1] | Ki (MDM2; [2]) [nM] | Ki (MDMX; [3]) [nM] | other results
1 | CC(=O)N[C@@H](CC(C)C)C(=O)N[C@H](C(=O)N[C@@H](Cc1ccccc1)C(=O)N[C@]1(C)CCCCCCC=CCCC[C@@](C)(C(=O)N[C@@H](CO)C(=O)N[C@@H](C)C(=O)N[C@@H](Cc2ccccc2)C(N)=O)NC(=O)[C@H](CC(C)C)NC(=O)[C@H](CCC(N)=O)NC(=O)[C@H](C)NC(=O)[C@H](Cc2c[nH]c3ccccc23)NC(=O)[C@H](Cc2ccc(O)cc2)NC(=O)[C@H](C)NC1=O)[C@@H](C)O [compound 7] (Ac-LTF[R8]AYWAQL[S5]SAF-NH2; staple 4-11) | −20045.4 | – | – | –
2 | CCCC[C@H](NC(=O)[C@H](CCC(N)=O)NC(=O)[C@H](CCC(N)=O)NC(=O)[C@]1(C)CCCC=CCCCCCC[C@@](C)(NC(=O)[C@H](Cc2ccccc2)NC(C)=O)C(=O)N[C@@H](C)C(=O)N[C@@H](Cc2ccc(O)cc2)C(=O)N[C@@H](Cc2c[nH]c3ccccc23)C(=O)N[C@@H]([C@@H](C)O)C(=O)N[C@@H](C)C(=O)N[C@@H](CC(C)C)C(=O)N1)C(=O)N[C@@H](C(N)=O)C(C)C [compound 41] (Ac-F[R8]AYWTAL[S5]QQ[Nle][dV]-NH2; staple 2-9) | 20410.4 | – | – | –
3 | CC(=O)N[C@@H](CC(C)C)C(=O)N[C@H](C(=O)N[C@@H](Cc1ccccc1)C(=O)N[C@]1(C)CCCCCCC=CCCC[C@@](C)(C(=O)N[C@@H](Cc2c[nH]cn2)C(=O)N[C@@H](Cc2c[nH]cn2)C(=O)N[C@@H](CC(C)C)C(=O)N[C@H](C)C(N)=O)NC(=O)[C@H](CC(C)C)NC(=O)[C@H](CCC(N)=O)NC(=O)[C@H](C)NC(=O)[C@H](Cc2c[nH]c3ccccc23)NC(=O)[C@H](Cc2ccc(O)cc2)NC(=O)[C@H](C)NC1=O)[C@@H](C)O [compound 43] (Ac-LTF[R8]AYWAQL[S5]HHL[dA]-NH2; staple 4-11) | 2912.9 | – | – | –
4 | CC(C)C[C@H](NC(=O)CN(C)C)C(=O)N[C@H](C(=O)N[C@@H](Cc1ccccc1)C(=O)N[C@]1(C)CCCCCC/C=C/CCC[C@@](C)(C(=O)N[C@@H](C)C(=O)N[C@@H](C)C(=O)N[C@@H](C)C(=O)N[C@@H](C)C(=O)N[C@@H](C)C(=O)N[C@H](C)C(N)=O)NC(=O)[C@H](CC(C)C)NC(=O)[C@H](CCC(N)=O)NC(=O)[C@H](C)NC(=O)[C@H](Cc2c[nH]c3ccccc23)NC(=O)[C@H](Cc2ccc(O)cc2)NC(=O)[C@H](C)NC1=O)[C@@H](C)O [compound 437] | – | – | – | IC50 (MDM2): 10 to 100 nM; Ki (MDM2): < 10 nM; IC50 (MDMX): 10 to 100 nM; Ki (MDMX): 10 to 100 nM
5 | CC(=O)N[C@@H](CC(C)C)C(=O)N[C@H](C(=O)N[C@@H](Cc1ccccc1)C(=O)N[C@]1(C)CCCCCC/C=C/CCC[C@@](C)(C(=O)N[C@@H](C)C(=O)N[C@@H](C)C(=O)N[C@@H](C)C(=O)N[C@@H](C)C(=O)N[C@@H](C)C(=O)N[C@H](C)C(N)=O)NC(=O)[C@H](CC(C)C)NC(=O)[C@H](CCC(N)=O)NC(=O)[C@H](C)NC(=O)[C@H](Cc2c[nH]c3cc(Cl)ccc23)NC(=O)[C@H](Cc2ccc(O)cc2)NC(=O)[C@H](CCC(=O)O)NC1=O)[C@@H](C)O [compound 555] | – | – | – | Ki (MDM2): < 10 nM; Ki (MDMX): 10 to 100 nM
6 | CC(=O)N[C@@H](CC(C)C)C(=O)N[C@H](C(=O)N[C@@H](Cc1ccc(F)c(F)c1)C(=O)N[C@]1(C)CCCCCC/C=C/CCC[C@@](C)(C(=O)N[C@@H](C)C(=O)N[C@@H](C)C(=O)N[C@@H](C)C(=O)N[C@@H](C)C(=O)N[C@@H](C)C(=O)N[C@H](C)C(N)=O)NC(=O)[C@H](CC(C)C)NC(=O)[C@H](CCC(N)=O)NC(=O)[C@H](C)NC(=O)[C@H](Cc2c[nH]c3ccccc23)NC(=O)[C@H](Cc2ccc(O)cc2)NC(=O)[C@H](CCC(=O)O)NC1=O)[C@@H](C)O [compound 558] | – | – | – | Ki (MDM2): 10 to 100 nM; Ki (MDMX): 10 to 100 nM

More lines, main results first:

Row | Molar Ellipticity TFE-Molar Ellipticity Benign [1] [deg cm^2 dmol^−1] | Ki (MDM2; [2]) [nM] | Ki (MDMX; [3]) [nM] | Structure (SMILES) | other results
7 | −17760.8 | – | – | CC(=O)N[C@@H](CC(C)C)C(=O)N[C@H](C(=O)N[C@@H](Cc1ccccc1)C(=O)N[C@]1(C)CCCCCCC=CCCC[C@@](C)(C(=O)N[C@@H](C)C(=O)N[C@@H](C)C(=O)N[C@@H](C)C(=O)N[C@H](C)C(N)=O)NC(=O)[C@H](CC(C)C)NC(=O)[C@H](CCC(N)=O)NC(=O)[C@H](C)NC(=O)[C@H](Cc2c[nH]c3ccccc23)NC(=O)[C@H](Cc2ccc(O)cc2)NC(=O)[C@H](C)NC1=O)[C@@H](C)O (single isomer, unassigned) [compound 230] | –
8 | 16225.2 | – | – | CC(=O)N[C@@H](CC(C)C)C(=O)N[C@H](C(=O)N[C@@H](Cc1ccccc1)C(=O)N[C@]1(C)CCCCCCC=CCCC[C@@](C)(C(=O)N[C@@H](CO)C(=O)N[C@@H](C)C(=O)N[C@@H](C)C(N)=O)NC(=O)[C@H](CC(C)C)NC(=O)[C@H](CCC(N)=O)NC(=O)[C@H](C)NC(=O)[C@H](Cc2c[nH]c3ccccc23)NC(=O)[C@H](Cc2ccc(O)cc2)NC(=O)[C@H](C)NC1=O)[C@@H](C)O [compound 11] (Ac-LTF[R8]AYWAQL[S5]SAA-NH2; staple 4-11) | –
10 | – | < 10 | 10 to 100 | CC(=O)N[C@@H](CC(C)C)C(=O)N[C@H](C(=O)N[C@@H](Cc1ccccc1)C(=O)N[C@]1(C)CCCCCC/C=C/CCC[C@@](C)(C(=O)N[C@@H](C)C(=O)N[C@@H](C)C(=O)N[C@@H](C)C(=O)NC(C)(C)C(=O)N[C@@H](C)C(=O)N[C@H](C)C(N)=O)NC(=O)[C@H](CC(C)C)NC(=O)[C@H](CCC(N)=O)NC(=O)[C@H](C)NC(=O)[C@H](Cc2c[nH]c3ccccc23)NC(=O)[C@H](Cc2ccc(O)cc2)NC(=O)[C@H](CCC(=O)O)NC1=O)[C@@H](C)O [compound 564] (Ac-LTF[R8]EYWAQL[S5]AAA[Aib]A[dA]-NH2; staple (E) 4-11) | –
11 | – | < 10 | 10 to 100 | CC(=O)N[C@@H](CC(C)C)C(=O)N[C@H](C(=O)N[C@@H](Cc1ccccc1)C(=O)N[C@]1(C)CCCCCC/C=C/CCC[C@@](C)(C(=O)N[C@@H](C)C(=O)N[C@@H](C)C(=O)N[C@@H](C)C(=O)N[C@@H](C)C(=O)N[C@@H](C)C(=O)NC(C)(C)C(N)=O)NC(=O)[C@H](CC(C)C)NC(=O)[C@H](CCC(N)=O)NC(=O)[C@H](C)NC(=O)[C@H](Cc2c[nH]c3ccccc23)NC(=O)[C@H](Cc2ccc(O)cc2)NC(=O)[C@H](CCC(=O)O)NC1=O)[C@@H](C)O [compound 567] | –
12 | – | < 10 | 10 to 100 | CC(=O)N[C@@H](CC(C)C)C(=O)N[C@H](C(=O)N[C@@H](Cc1ccccc1)C(=O)N[C@]1(C)CCCCCC/C=C/CCC[C@@](C)(C(=O)N[C@@H](C)C(=O)N[C@@H](C)C(=O)N[C@@H](C)C(=O)N[C@@H](C)C(=O)N[C@@H](C)C(=O)N(C)CC(N)=O)NC(=O)[C@H](CC(C)C)NC(=O)[C@H](CCC(N)=O)NC(=O)[C@H](C)NC(=O)[C@H](Cc2c[nH]c3ccccc23)NC(=O)[C@H](Cc2ccc(O)cc2)NC(=O)[C@H](CCC(=O)O)NC1=O)[C@@H](C)O [compound 578] | –
